Data from ChEMBL document CHEMBL1131315, “Synthesis and anticonvulsant activity of 2(3H)-benzoxazolone and 2(3H)-benzothiazolone derivatives” (J Med Chem, 1998).
Activity calls are given as the source filed them. The calls are words filed in the database; no cut-off is given here.

Legend:
Mus musculus [1] = test: Anticonvulsant activity in Maximal electroshock seizure test at 100 mg/kg i.p. in mice.; format: functional, organism-based; parameters: dose 100 mg/kg
Mus musculus [2] = test: The compound was tested for anticonvulsant activity in subcutaneous pentylenetetrazole seizure test (sc Met) for 4 hr in mice; active at 300 mg/kg; format: functional, organism-based; parameters: dose 300 mg/kg
Mus musculus [3] = test: Inhibition of s.c. pentylenetetrazole induced seizure in mice following i.p. administration.; format: functional
Rattus norvegicus [4] = test: The compound was tested peroral dose of 25 mg/kg for 1 hour for rotarod toxicity; 0/4; format: functional; details: route oral
Mus musculus [5] = test: The compound was tested for anticonvulsant activity in subcutaneous pentylenetetrazole seizure test (sc Met) for 30 min in mice; active at 100 mg/kg; format: functional, organism-based; parameters: dose 100 mg/kg
[6] = The compound was tested for time of peak effect (TPE) in hours for its toxicity in mice on ip administration.; format: organism-based; details: mouse, in vivo
Rattus norvegicus [7] = test: The compound was tested per os dose of 25 mg/kg for 2 hours for maximal electroshock test on rats; MES= 2/4; format: functional
[8] = The compound was tested for neurologic toxicity (rotarod) test for 4 hours in mice; active at 300 mg/kg; format: organism-based; parameters: dose 300 mg/kg; details: mouse, in vivo
[9] = (§1) Protective index value is the ratio between ED50 and TD50; format: functional
Rattus norvegicus [10] = test: The compound was tested per os dose of 25 mg/kg for 1 hour for maximal electroshock test on rats; MES= 3/4; format: functional
Rattus norvegicus [11] = test: (§2) The compound was tested for the toxic dose on oral administration.; format: functional
[12] = The compound was determined for the dose (mg/kg) by rotarod test at the time of peak neurotoxic effect in mice on ip administration.; format: ADME, organism-based; details: mouse, in vivo
Rattus norvegicus [13] = test: The compound was tested peroral dose of 25 mg/kg for 0.5 hours for rotarod toxicity; 0/4; format: functional; details: route oral
Rattus norvegicus [14] = test: The compound was tested per os dose of 25 mg/kg for 4 hours for maximal electroshock test on rats; MES= 2/4; format: functional
Mus musculus [15] = test: The compound was tested for anticonvulsant activity in Maximal electroshock seizure test (MES) for 4 hr in mice(ip); active at 100 mg/kg; format: functional, organism-based; parameters: dose 100 mg/kg
Rattus norvegicus [16] = test: The compound was tested for the effective oral dose to inhibit 50% of the anticonvulsant in rats.(Value in parenthesis indicate 95% confidence limits).; format: functional
Rattus norvegicus [17] = test: The compound was tested per os dose of 30 mg/kg for 0.25 hours for maximal electroshock test on rats; MES= 0/4; format: functional
Rattus norvegicus [18] = test: The compound was tested peroral dose of 25 mg/kg for 2 hours for rotarod toxicity; 0/4; format: functional; details: route oral
Rattus norvegicus [19] = test: The compound was tested peroral dose of 25 mg/kg for 4 hours for rotarod toxicity; 0/4; format: functional; details: route oral
Mus musculus [20] = test: Time of peak effect in mice following i.p. administration.; format: functional
Rattus norvegicus [21] = test: The compound was tested peroral dose of 25 mg/kg for 0.25 hours for rotarod toxicity; 0/4; format: functional; details: route oral
Rattus norvegicus [22] = test: The compound was tested per os dose of 25 mg/kg for 0.5 hours for maximal electroshock test on rats; MES= 3/4; format: functional
[23] = The compound was tested for neurologic toxicity (rotarod) test for 30 min in mice; active at 100 mg/kg; format: organism-based; parameters: dose 100 mg/kg; details: mouse, in vivo, 0.5 h
Mus musculus [24] = test: The compound was tested to inhibit 50% of induced maximal electroshock seizure in mice on ip administration; format: functional
Rattus norvegicus [25] = test: The compound was tested peroral dose of 40 mg/kg for 0.25 hours for rotarod toxicity; 0/4; format: functional; details: route oral
Mus musculus [26] = test: The compound was tested for anticonvulsant activity in Maximal electroshock seizure test (MES) for 4 hr in mice(ip); active at 300 mg/kg; format: functional, organism-based; parameters: dose 300 mg/kg
Rattus norvegicus [27] = test: The compound was tested peroral dose of 40 mg/kg for 2 hours for rotarod toxicity; 0/4; format: functional; details: route oral
Rattus norvegicus [28] = test: The compound was tested peroral dose of 40 mg/kg for 4 hours for rotarod toxicity; 0/4; format: functional; details: route oral
Rattus norvegicus [29] = organism: Rattus norvegicus; test: as §1; format: functional
Mus musculus [30] = test: Anticonvulsant activity in subcutaneous pentylenetetrazole seizure test for 30 min in mice; No activity/toxicity at 300 mg/kg.; format: functional, organism-based; parameters: dose 300 mg/kg
Mus musculus [31] = test: The anticonvulsant activity in subcutaneous pentylenetetrazole seizure test (sc Met) for 4 hr in mice; no activity or no toxicity at 300 mg/kg; format: functional, organism-based; parameters: dose 300 mg/kg
Sigma 2 receptor = test: Affinity on sigma 2 receptor using [3H]- DTG as radioligand
Rattus norvegicus [32] = test: The compound was tested peroral dose of 40 mg/kg for 0.25 hours for maximal electroshock test on rats; MES= 3/4; format: functional; details: route oral
Rattus norvegicus [33] = test: The compound was tested peroral dose of 40 mg/kg for 4 hours for maximal electroshock test on rats; MES= 0/4; format: functional; details: route oral
Rattus norvegicus [34] = test: The compound was tested peroral dose of 40 mg/kg for 0.5 hours for rotarod toxicity; 0/4; format: functional; details: route oral
[35] = as §2; format: ADME; details: rat
Mus musculus [36] = test: The compound was tested to inhibit 50% of induced maximal electroshock seizure in mice on ip administration.; format: functional
[37] = The compound was tested for neurologic toxicity (rotarod) test for 30 min in mice; active at 300 mg/kg; format: organism-based; parameters: dose 300 mg/kg; details: mouse, in vivo, 0.5 h
[38] = molecular target: Sigma non-opioid intracellular receptor 1 (Homo sapiens) (UniProt Q99720); test: Ratio between the Ki(nM)values of sigma-2 and sigma-1; format: functional
Sigma non-opioid intracellular receptor 1 (Homo sapiens), sequence (Q99720 whole entry): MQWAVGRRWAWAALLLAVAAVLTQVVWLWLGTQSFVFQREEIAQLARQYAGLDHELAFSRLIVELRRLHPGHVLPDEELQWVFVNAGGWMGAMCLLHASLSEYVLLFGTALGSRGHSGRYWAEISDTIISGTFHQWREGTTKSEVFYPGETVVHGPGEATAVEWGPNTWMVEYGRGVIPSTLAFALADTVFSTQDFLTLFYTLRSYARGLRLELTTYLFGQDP

Rattus norvegicus [39] = test: The compound was tested peroral dose of 40 mg/kg for 1 hour for rotarod toxicity; 0/4; format: functional; details: route oral
[40] = The compound was tested for neurologic toxicity (rotarod) test for 4 hours in mice; no activity or no toxicity at 300 mg/kg; format: organism-based; parameters: dose 300 mg/kg; details: mouse, in vivo
Rattus norvegicus [41] = test: The compound was tested for the effective oral dose to inhibit 50% of the anticonvulsant in rats; format: functional
Rattus norvegicus [42] = test: The compound was tested peroral dose of 40 mg/kg for 1 hour for maximal electroshock test on rats; MES= 1/4; format: functional; details: route oral
Rattus norvegicus [43] = test: The compound was tested peroral dose of 40 mg/kg for 0.5 hours for maximal electroshock test on rats; MES= 3/4; format: functional; details: route oral
Rattus norvegicus [44] = test: The compound was tested peroral dose of 40 mg/kg for 2 hours for maximal electroshock test on rats; MES= 1/4; format: functional; details: route oral
Mus musculus [45] = test: The compound was tested for anticonvulsant activity in Maximal electroshock seizure test for 30 min in mice(ip); active at 30 mg/kg; format: functional, organism-based; parameters: dose 30 mg/kg
Rattus norvegicus [46] = test: The compound was tested per os dose of 30 mg/kg for 0.5 hours for maximal electroshock test on rats; MES= 2/4; format: functional
Rattus norvegicus [47] = test: The compound was tested per os dose of 30 mg/kg for 2 hours for maximal electroshock test on rats; MES= 0/4; format: functional
Rattus norvegicus [48] = test: The compound was tested per os dose of 30 mg/kg for 0.5 hours for rotarod toxicity; 0/4; format: functional
Rattus norvegicus [49] = test: The compound was tested per os dose of 30 mg/kg for 0.25 hours for rotarod toxicity; 0/4; format: functional
Rattus norvegicus [50] = test: The compound was tested per os dose of 30 mg/kg for 2 hours for rotarod toxicity; 0/4; format: functional
Rattus norvegicus [51] = test: The compound was tested per os dose of 30 mg/kg for 0.25 hours for maximal electroshock test on rats; MES= 4/4; format: functional
Rattus norvegicus [52] = test: The compound was tested per os dose of 30 mg/kg for 1 hour for rotarod toxicity; 0/4; format: functional
Mus musculus [53] = test: The compound was determined for the dose (mg/kg) by rotarod test at the time of peak neurotoxic effect in mice on ip administration; format: functional
Rattus norvegicus [54] = test: The compound was tested per os dose of 30 mg/kg for 4 hours for rotarod toxicity; 0/4; format: functional
[55] = The compound was tested for the toxic dose on oral administration. (Value in parenthesis indicate 95% confidence limits).; format: ADME; details: rat
[56] = The compound was tested for time of peak effect (TPE) in hours for its activity in mice on ip administration.; format: ADME, organism-based; details: mouse, in vivo
Rattus norvegicus [57] = test: The compound was tested per os dose of 30 mg/kg for 1 hour for maximal electroshock test on rats; MES= 1/4; format: functional
Rattus norvegicus [58] = test: The compound was tested per os dose of 30 mg/kg for 4 hours for maximal electroshock test on rats; MES= 0/4; format: functional

In the case of `Oc1nc2ccc(Cc3ccccc3)cc2o1`, the MES (Mus musculus [1]) is reported as “active at 100 mg/kg”, the scMet (Mus musculus [2]) is reported as “active at 100 mg/kg” and the ED50 (Mus musculus [3]) is reported as 77.2 mg/kg. For the same molecule, the “No. of animals exhibiting toxicity / Number of animals tested” value (Rattus norvegicus [4]) was 0, the scMet (Mus musculus [5]) was “active at 100 mg/kg” and the Toxicity [6] was 1 h. The Protected/Tested (Rattus norvegicus [7]) was 2, the Rotarod toxicity [8] was “active at 100 mg/kg” and the PI [9] was 21.7. It also gave a Protected/Tested (Rattus norvegicus [10]) of 3, a TD50 (Rattus norvegicus [11]) greater than 500 mg/kg and a TD50 [12] of 164 mg/kg. For the same molecule, the “No. of animals exhibiting toxicity / Number of animals tested” value (Rattus norvegicus [13]) was 0, the Protected/Tested (Rattus norvegicus [14]) was 2 and the MES (Mus musculus [15]) was “active at 100 mg/kg”. The ED50 (Rattus norvegicus [16]) was 23.1 mg/kg, the Protected/Tested (Rattus norvegicus [17]) was 0 and the “No. of animals exhibiting toxicity / Number of animals tested” value (Rattus norvegicus [18]) was 0. For the same molecule, the “No. of animals exhibiting toxicity / Number of animals tested” value (Rattus norvegicus [19]) was 0, the Activity (Mus musculus [20]) was 0.5 h and the “No. of animals exhibiting toxicity / Number of animals tested” value (Rattus norvegicus [21]) was 0. For the same molecule, the Protected/Tested (Rattus norvegicus [22]) was 3, the Rotarod toxicity [23] was “active at 100 mg/kg” and the ED50 (Mus musculus [24]) was 68.3 mg/kg.

In the case of `CCC(=O)c1ccc2c(c1)sc(=O)n2CCN1CCCCC1`, the “No. of animals exhibiting toxicity / Number of animals tested” value (Rattus norvegicus [25]) is reported as 0, the MES (Mus musculus [26]) is reported as “active at 30 mg/kg” and the “No. of animals exhibiting toxicity / Number of animals tested” value (Rattus norvegicus [27]) is reported as 0. For the same molecule, the ED50 (Mus musculus [3]) was greater than 55 mg/kg, the “No. of animals exhibiting toxicity / Number of animals tested” value (Rattus norvegicus [28]) was 0 and the PI (Rattus norvegicus [29]) was 4. For the same molecule, the Toxicity [6] was 0.25 h, the scMet (Mus musculus [30]) was “No activity or no toxicity at 300 mg/kg” and the scMet (Mus musculus [31]) was “No activity or no toxicity at 300 mg/kg”. The Ki (Sigma 2 receptor) was 481 nM, the Protected/Tested (Rattus norvegicus [32]) was 3 and the Protected/Tested (Rattus norvegicus [33]) was 0. For the same molecule, the “No. of animals exhibiting toxicity / Number of animals tested” value (Rattus norvegicus [34]) was 0, the TD50 [12] was 46.3 mg/kg and the TD50 [35] was greater than 110 mg/kg. The ED50 (Mus musculus [36]) was 8.7 mg/kg, the Rotarod toxicity [37] was “active at 300 mg/kg” and the Ratio [38] was 10. For the same molecule, the Activity (Mus musculus [20]) was 0.25 h, the “No. of animals exhibiting toxicity / Number of animals tested” value (Rattus norvegicus [39]) was 0 and the Rotarod toxicity [40] was “active at 300 mg/kg”. It also gave an ED50 (Rattus norvegicus [41]) of 27.2 mg/kg, a Protected/Tested (Rattus norvegicus [42]) of 1 and a Protected/Tested (Rattus norvegicus [43]) of 3. The Protected/Tested (Rattus norvegicus [44]) was 1 and the MES (Mus musculus [45]) was “active at 30 mg/kg”.

For `Cn1c(=O)oc2ccccc21`, the Protected/Tested (Rattus norvegicus [46]) was 2, the Protected/Tested (Rattus norvegicus [47]) was 0 and the MES (Mus musculus [1]) was “active at 300 mg/kg”. The “No. of animals exhibiting toxicity / Number of animals tested” value (Rattus norvegicus [48]) was 0, the MES (Mus musculus [26]) was “active at 300 mg/kg” and the ED50 (Mus musculus [3]) was 132 mg/kg. The scMet (Mus musculus [5]) was “active at 100 mg/kg”, the Toxicity [6] was 0.25 h and the scMet (Mus musculus [31]) was “active at 100 mg/kg”. The “No. of animals exhibiting toxicity / Number of animals tested” value (Rattus norvegicus [49]) was 0, the “No. of animals exhibiting toxicity / Number of animals tested” value (Rattus norvegicus [50]) was 0 and the Protected/Tested (Rattus norvegicus [51]) was 4. The “No. of animals exhibiting toxicity / Number of animals tested” value (Rattus norvegicus [52]) was 0, the TD50 (Mus musculus [53]) was 113 mg/kg and the Rotarod toxicity [8] was “active at 100 mg/kg”. The PI [9] was 16.4, the “No. of animals exhibiting toxicity / Number of animals tested” value (Rattus norvegicus [54]) was 0 and the TD50 [55] was greater than 500 mg/kg. The Activity [56] was 0.25 h, the ED50 (Rattus norvegicus [16]) was 30.6 mg/kg and the Protected/Tested (Rattus norvegicus [57]) was 1. The Protected/Tested (Rattus norvegicus [58]) was 0, the Rotarod toxicity [23] was “active at 100 mg/kg” and the ED50 (Mus musculus [24]) was 50.2 mg/kg.
